{"source": "paper PMC4514675", "about": "“Novel Apo E-Derived ABCA1 Agonist Peptide (CS-6253) Promotes Reverse Cholesterol Transport and Induces Formation of preβ-1 HDL In Vitro” (PLoS ONE, 2015)", "key": {"[1]": {"system": "BHK-ABCA1 plasma membrane microdomains", "assay": "Desorption of phosphatidylcholine and sphingomyelin species from raft and non-raft domains of BHK-ABCA1 cells", "assay_type": "cell-based, hamster", "conditions": "0.96 μM, 12 h", "method": "Lipid labeling was performed as described previously with minor modifications. Briefly, BHK-cells were labeled with either 5 μCi/ml ^3[H] choline (Perkin-Elmer) for 48 h or 3 μCi/ml ^3[H] cholesterol (Perkin-Elmer) for 24 h, and then stimulated as described above. Cells were subsequently incubated with lipid-free apoA-I or CS-6253 at (0.96 μM) for 12h, and fractionated by sucrose gradient in the presence of 0.2% Triton X-100. For each fraction, lipids were extracted by Folch and ^3[H]choline-labeled PtdCho, and SM were separated by TLC in the solvent system chloroform-methanol-water (65:35:4; v/v/v), and counted.\nFig 4 Apo A-I (left panels) and CS-6253 (right panels) desorb phospholipids species from raft and nonraft domains. […] After lipid extraction by Folch, ^3[H]phosphatidyl choline (^3[H]PC) (A and B), or ^3[H]sphingomyelin (^3[H]SM) (C and D) in each fraction was assessed for radioactivity. Radioactivity appearing in fractions corresponding to raft (1–5) and nonraft (6–10) material was pooled, and desorption of ^3[H]PC (A and B inset) and ^3[H]SM (C and D inset), from raft versus nonraft in the presence of apo A-I or CS-6253 was expressed as a percentage of control (100%, in the absence of acceptor). ^3[H]PC and ^3[H]SM distributions in sucrose gradient fractions after 12h incubation with apo A-I or CS-6253 were assessed by TLC respectively. […]"}, "THP-1 foam cells": {"system": "THP-1 foam cells", "assay": "Cholesterol efflux from THP-1 macrophage-derived foam cells", "assay_type": "cell-based, human", "method": "Human THP-1 macrophages (American Type Tissue Culture Collection, Camden, NJ) were grown as previously reported. Cells were plated at 2x10^5/ml 24 well-plates in RPMI1640 medium containing 10% fetal bovine serum (FBS), 50 μM β–mercaptoethanol, 50 μg/ml gentamicin, and maintained at 37°C in a humidified atmosphere of 5% CO2. THP-1 cells were differentiated into macrophages by the addition of 200 nM phorbol myristyl acetate (PMA) for 72h. Macrophages were incubated for 72h to become fully differentiated macrophages prior to experiment. […]\nHuman macrophages THP-1 cells were labelled with ^3H-cholesterol (5 μCi/ml) incorporated into AcLDL (100 μg/ml) in the presence of 1% FBS, 50 μM β-mercaptoethanol and 200 nM PMA, and incubated for 72h. […] Medium and cell associated ^3H-cholesterol were then measured by liquid scintillation counting. Cholesterol efflux was calculated according to the following equation as the percentage of ^3H-cpm medium / (^3H-cpm medium + ^3H-cpm cells) × 100%. […] Bands corresponding to ^3[H]-FC and ^3[H]-CE were located by exposure to iodine vapor, and were scraped off the plate into liquid scintillating vials and assayed for radioactivity.\nFig 2 Effect of CS-6253 treatment on cholesterol efflux. […] Cholesterol efflux from either ABCA1 cells or control cells to apo A-I (closed circles), and CS-6253 (closed triangles) was determined at the indicated time points. […]"}}, "data": [{"substance": "apolipoprotein A-I [apo A-I]", "values": [{"measurement": "PC desorption in PM microdomains (in words)", "setting": "[1]", "result": "less PC desorption in PM microdomains than CS-6253"}, {"measurement": "SM desorption", "setting": "[1]", "result": "desorbed from both non-raft and raft domains"}, {"measurement": "3H-FC removed from FC-enriched THP-1 cells", "setting": "THP-1 foam cells; 0.96 μM acceptor, 24 h, vs control without acceptor, triplicate wells, mean ± SD", "result": "27.42±1.04", "unit": "%"}, {"measurement": "proportion of FC mobilized away from the CE cycle", "setting": "THP-1 foam cells; THP-1 foam cells, P<0.05", "result": 29, "unit": "%"}]}]}
